Results published in US20170152239A1, “BENZAMIDE AND HETEROBENZAMIDE COMPOUNDS” (PFIZER INC., priority 2012, published 2017).

What was measured:
Format in all cases: biochemical
[1] = target: WT EZH2 (EZH2 4 protein complex: EZH2, EED, SUZ12, RbAp48) (Homo sapiens, UniProt Q15910); assay: WT EZH2 nucleosome assay; settings: compound at 20 μM; nucleosome assay
In short: (§1)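 IC50 values come from 4-parameter fits of 11-point dose responses, with % effect also given at 20 μM. Reactions held HeLa oligonucleosomes (25 μg/mL), rH1 (50 nM), 1.5 μM tritiated SAM and 5 nM enzyme complex at pH 8.5 Tris/DTT/Tween; stopped by TCA after 60 min, filtered and scintillation-counted.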

[2] = target: WT EZH2 (EZH2 4 protein complex: EZH2, EED, SUZ12, RbAp48) (Homo sapiens, UniProt O75530+Q09028+Q15022+Q15910); assay: WT EZH2 nucleosome assay; settings: nucleosome assay, 5 nM EZH2 4-protein complex, 1.5 μM SAM; read-out: WT EZH2 IC50
In short: as §1

[3] = target: EZH2PRC2 mutant Y641N (Homo sapiens, UniProt Q15910, Y641N); assay: EZH2PRC2 mutant Y641N nucleosome assay; settings: read-out: EZH2PCR2 Mutant Y641N IC50
Method: Nucleosome Assay Protocol:
A. Compound preparation • 1. Prepare 10 mM stock solutions in 100% DMSO from solid material • 2. Serial dilute 10 mM compound stocks either 2 or 3-fold in 100% DMSO to generate compounds for 11 point dose response
B. Reagent preparation • 1. Prepare 1× assay buffer containing 100 mM Tris pH 8.5, 4 mM DTT and 0.01% Tween-20 • 2. Dilute purified HeLA oligonucleosomes and recombinant histone H1 (New England Biolabs) in assay buffer to 1.67×. • 3. Dilute EZH2 4 protein complex (EZH2, EED, SUZ12, RbAp48) to 3.5× in assay buffer • 4. Prepare 10×^3H SAM solution in assay buffer using 0.94 μCi/well of radioactive SAM (Perkin Elmer) and sufficient non-labeled SAM (Sigma) for 1.5 μM final concentration. • 5. Dilute TCA to 20% in DI water
C. Enzyme reaction • 1. Final reaction conditions are 5 nM EZH2 4-protein complex, 1.5 μM SAM, 25 μg/mL oligonucleosomes, 50 nM rH1 in a 50 μl reaction volume. • 2. Add 1 μl of diluted compound to the assay plate (96-well V-bottom polypropylene plates) or 1 μl of DMSO for control wells. • 3. Add 30 μl of nucleosomes to the assay plate • 4. Add 14 μl of EZH2 4 protein complex to the assay plate • 5. Add 5 μl of ^3H SAM to start the reaction. • 6. Stop the reaction after 60 minutes with the addition of 100 μl of 20% TCA • 7. Transfer 150 μl of quenched reaction into a prepared filterplate (Millipore #MSIPN4B10) • 8. Apply vacuum to the filterplate to filter the reaction mix through the membrane. • 9. Wash the filterplate with 8×200 μl of PBS, blot dry and dry in an oven for 30 minutes • 10. Add 50 μl of microscint-20 scintillation fluid (Perkin Elmer) to each well, wait 30 minutes and count on a liquid scintillation counter.
D. Data analysis • 1. IC50 values were determined by fitting the data to a 4-parameter IC50 equation using proprietary curve fitting software.
Wild type (WT) EZH2% Effect at 20 μM and IC50 values (μM) generated in WT EZH2 or EZH2PRC2 mutant Y641N nucleosome assays are provided in Table 3 below. A blank entry in the table indicates the data was not generated in that assay.

EZH2PRC2 mutant Y641N, sequence (Q15910 whole entry Y641N): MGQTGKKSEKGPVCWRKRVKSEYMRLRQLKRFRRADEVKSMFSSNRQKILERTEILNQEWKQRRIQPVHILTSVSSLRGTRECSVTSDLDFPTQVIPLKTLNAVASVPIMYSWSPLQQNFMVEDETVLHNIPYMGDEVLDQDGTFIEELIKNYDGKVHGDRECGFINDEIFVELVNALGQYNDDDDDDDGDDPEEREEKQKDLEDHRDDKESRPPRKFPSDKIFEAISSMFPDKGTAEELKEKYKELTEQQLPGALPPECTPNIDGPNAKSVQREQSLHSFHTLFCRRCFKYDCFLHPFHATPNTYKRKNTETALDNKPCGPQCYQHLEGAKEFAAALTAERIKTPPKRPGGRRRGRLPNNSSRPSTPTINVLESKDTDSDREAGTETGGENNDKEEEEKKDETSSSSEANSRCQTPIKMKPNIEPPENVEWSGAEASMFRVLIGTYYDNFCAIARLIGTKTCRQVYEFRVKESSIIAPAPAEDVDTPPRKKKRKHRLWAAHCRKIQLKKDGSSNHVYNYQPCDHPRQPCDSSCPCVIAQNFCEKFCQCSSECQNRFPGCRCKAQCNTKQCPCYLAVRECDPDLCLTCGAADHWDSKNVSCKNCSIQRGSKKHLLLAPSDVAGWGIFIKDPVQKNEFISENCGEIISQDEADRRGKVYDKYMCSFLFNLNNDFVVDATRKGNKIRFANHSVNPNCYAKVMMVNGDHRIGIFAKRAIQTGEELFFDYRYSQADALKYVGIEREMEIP
EZH2PRC2 mutant Y641N, sequence (O75530 whole entry partner): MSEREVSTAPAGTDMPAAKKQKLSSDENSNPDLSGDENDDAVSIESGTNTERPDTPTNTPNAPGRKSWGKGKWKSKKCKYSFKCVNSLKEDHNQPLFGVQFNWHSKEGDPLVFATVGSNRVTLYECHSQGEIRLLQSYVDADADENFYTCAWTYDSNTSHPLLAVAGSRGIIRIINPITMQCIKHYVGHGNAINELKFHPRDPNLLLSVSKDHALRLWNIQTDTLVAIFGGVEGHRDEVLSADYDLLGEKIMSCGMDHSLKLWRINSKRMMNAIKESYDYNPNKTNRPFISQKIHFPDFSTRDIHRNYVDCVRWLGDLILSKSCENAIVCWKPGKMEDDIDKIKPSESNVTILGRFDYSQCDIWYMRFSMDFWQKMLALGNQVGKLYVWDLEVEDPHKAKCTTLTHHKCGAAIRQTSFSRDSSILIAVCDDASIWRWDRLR
EZH2PRC2 mutant Y641N, sequence (Q15022 whole entry partner): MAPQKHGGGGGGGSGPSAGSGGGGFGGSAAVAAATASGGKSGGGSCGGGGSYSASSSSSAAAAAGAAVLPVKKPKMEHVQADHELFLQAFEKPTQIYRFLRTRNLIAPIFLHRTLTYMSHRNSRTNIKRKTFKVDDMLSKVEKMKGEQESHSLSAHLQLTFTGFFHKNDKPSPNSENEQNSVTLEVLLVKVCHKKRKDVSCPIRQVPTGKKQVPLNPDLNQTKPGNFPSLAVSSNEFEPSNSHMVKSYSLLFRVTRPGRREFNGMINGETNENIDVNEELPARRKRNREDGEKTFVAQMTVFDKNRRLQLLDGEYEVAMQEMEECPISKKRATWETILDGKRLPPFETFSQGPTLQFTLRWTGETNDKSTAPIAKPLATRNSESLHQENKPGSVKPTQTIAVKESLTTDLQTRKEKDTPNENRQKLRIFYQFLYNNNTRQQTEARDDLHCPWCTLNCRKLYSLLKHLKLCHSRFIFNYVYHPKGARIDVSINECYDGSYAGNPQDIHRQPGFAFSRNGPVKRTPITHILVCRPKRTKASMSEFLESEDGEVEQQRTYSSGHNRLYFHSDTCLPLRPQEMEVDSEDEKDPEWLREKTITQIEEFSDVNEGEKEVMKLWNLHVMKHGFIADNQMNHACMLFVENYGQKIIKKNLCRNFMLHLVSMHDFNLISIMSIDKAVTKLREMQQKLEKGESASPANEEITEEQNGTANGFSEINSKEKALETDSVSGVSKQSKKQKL
EZH2PRC2 mutant Y641N, sequence (Q09028 whole entry partner): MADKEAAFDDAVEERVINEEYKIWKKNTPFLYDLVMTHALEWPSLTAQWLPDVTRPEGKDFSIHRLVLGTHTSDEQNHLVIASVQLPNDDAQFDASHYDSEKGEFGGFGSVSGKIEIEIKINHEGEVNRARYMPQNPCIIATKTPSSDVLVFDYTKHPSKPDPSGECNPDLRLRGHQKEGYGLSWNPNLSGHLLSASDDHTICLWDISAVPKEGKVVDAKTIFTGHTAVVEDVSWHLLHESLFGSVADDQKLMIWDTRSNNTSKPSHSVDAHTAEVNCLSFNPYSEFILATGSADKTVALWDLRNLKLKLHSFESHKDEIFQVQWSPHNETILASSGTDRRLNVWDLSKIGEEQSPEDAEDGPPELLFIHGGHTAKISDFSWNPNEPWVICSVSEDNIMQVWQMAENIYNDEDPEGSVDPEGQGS
WT EZH2 (EZH2 4 protein complex: EZH2, EED, SUZ12, RbAp48) (Homo sapiens, UniProt O75530+Q09028+Q15022+Q15910), sequence (Q15910 whole entry): as the sequence (Q15910 whole entry Y641N) above, with N641Y counted along it
WT EZH2 (EZH2 4 protein complex: EZH2, EED, SUZ12, RbAp48) (Homo sapiens, UniProt O75530+Q09028+Q15022+Q15910), sequence (O75530 whole entry partner): as the sequence (O75530 whole entry partner) above
WT EZH2 (EZH2 4 protein complex: EZH2, EED, SUZ12, RbAp48) (Homo sapiens, UniProt O75530+Q09028+Q15022+Q15910), sequence (Q15022 whole entry partner): as the sequence (Q15022 whole entry partner) above
WT EZH2 (EZH2 4 protein complex: EZH2, EED, SUZ12, RbAp48) (Homo sapiens, UniProt O75530+Q09028+Q15022+Q15910), sequence (Q09028 whole entry partner): as the sequence (Q09028 whole entry partner) above
WT EZH2 (EZH2 4 protein complex: EZH2, EED, SUZ12, RbAp48) (Homo sapiens, UniProt Q15910), sequence (Q15910 whole entry): as the sequence (Q15910 whole entry Y641N) above, with N641Y counted along it
WT EZH2 (EZH2 4 protein complex: EZH2, EED, SUZ12, RbAp48) (Homo sapiens, UniProt Q15910), sequence (O75530 whole entry partner): as the sequence (O75530 whole entry partner) above
WT EZH2 (EZH2 4 protein complex: EZH2, EED, SUZ12, RbAp48) (Homo sapiens, UniProt Q15910), sequence (Q15022 whole entry partner): as the sequence (Q15022 whole entry partner) above
WT EZH2 (EZH2 4 protein complex: EZH2, EED, SUZ12, RbAp48) (Homo sapiens, UniProt Q15910), sequence (Q09028 whole entry partner): as the sequence (Q09028 whole entry partner) above

Structure (SMILES)	% Effect in WT EZH2 at 20 μM [1] [%]	IC50 [2] [µM]	IC50 [3] [µM]
Cc1cc(-c2cc(Cl)cc(C(=O)NCc3c(C)cc(C)[nH]c3=O)c2C)n(C)n1 [Example 77, 5-chloro-N-[(4,6-dimethyl-2-oxo-1,2-dihydropyridin-3-yl)methyl]-3-(1,3-dimethyl-1H-pyrazol-5-yl)-2-methylbenz-amide]	69.743	7.03	
COc1ccc(OC)c(C(=O)NCc2c(C)cc(C)[nH]c2=O)c1Cl [Example 119, 2-chloro-N-[(4,6-dimethyl-2-oxo-1,2-dihydropyridin-3-yl)methyl]-3,6-dimethoxy-benzamide]	44.087	37.4	
COc1c(OC(C)C)cccc1C(=O)NCc1c(C)cc(C)[nH]c1=O [Example 113, N-[(4,6-dimethyl-2-oxo-1,2-dihydropyridin-3-yl)methyl]-3-isopropoxy-2-methoxy-benzamide]	43.834	27.1	
COc1cccc(C(=O)NCc2c(C)cc(C)[nH]c2=O)c1Cl [Example 79, 2-chloro-N-[(4,6-dimethyl-2-oxo-1,2-dihydropyridin-3-yl)methyl]-3-methoxybenza-mide]	71.325	7.52	43.1
COc1ccc(C(=O)NCc2c(C)cc(C)[nH]c2=O)c(Cl)c1OC [Example 127, 2-chloro-N-[(4,6-dimethyl-2-oxo-1,2-dihydropyridin-3-yl)methyl]-3,4-dimethoxy-benzamide]	35.052	53.3	
Cc1cc(C)c(CNC(=O)c2cc(-c3cnn(C)c3)nc(OC(C)C)c2Cl)c(=O)[nH]1 [Example 33, 3-chloro-N-[(4,6-dimethyl-2-oxo-1,2-dihydropyridin-3-yl)methyl]-2-isopropoxy-6-(1-methyl-1H-pyrazol-4-yl)isonicotinamide]	92.965	0.78	
COc1cccc(C(=O)NCc2c(C)cc(C)[nH]c2=O)c1Br [Example 66, 2-bromo-N-[(4,6-dimethyl-2-oxo-1,2-dihydropyridin-3-yl)methyl]-3-methoxybenza-mide]	76.288	4.88	
Cc1cc(C)c(CNC(=O)c2ccnc(OC(C)C)c2F)c(=O)[nH]1 [Example 138, N-[(4,6-dimethyl-2-oxo-1,2-dihydropyridin-3-yl)methyl]-3-fluoro-2-isopropoxyiso-nicotinamide]	44.736	172	
Cc1cc(C)c(CNC(=O)c2nccc(OC(C)C)c2C)c(=O)[nH]1 [Example 82, N-[(4,6-dimethyl-2-oxo-1,2-dihydropyridin-3-yl)methyl]-4-isopropoxy-3-methylpyridine-2-carboxamide]	69.830	7.79	
COc1cc(OC)c(Cl)c(C(=O)NCc2c(C)cc(C)[nH]c2=O)c1Cl [Example 126, 2,6-dichloro-N-[(4,6-dimethyl-2-oxo-1,2-dihydropyridin-3-yl)methyl]-3,5-dimethoxybenz-amide]	38.121	52	
Cc1cc(C)c(CNC(=O)c2cc(-c3cnn(C)c3)cc(OC(C)C)c2Cl)c(=O)[nH]1 [Example 26, 2-chloro-N-[(4,6-dimethyl-2-oxo-1,2-dihydropyridin-3-yl)methyl]-3-isopropoxy-5-(1-methyl-1H-pyrazol-4-yl)benzamide]	93.705	0.93	
COc1cccc(C(=O)NCc2c(C)cc(C)[nH]c2=O)c1C#N [Example 135, 2-cyano-N-[(4,6-dimethyl-2-oxo-1,2-dihydropyridin-3-yl)methyl]-3-methoxybenz-amide]	62.306	141	> 200
Cc1cc(C)c(CNC(=O)c2cc(Cl)cc(-c3ccnn3C)c2C)c(=O)[nH]1 [Example 5, 5-chloro-N-[(4,6-dimethyl-2-oxo-1,2-dihydropyridin-3-yl)methyl]-2-methyl-3-(1-methyl-1H-pyrazol-5-yl)benzamide]	94.88	0.45	
COc1cccc(C(=O)NCc2c(C)cc(C)[nH]c2=O)c1F [Example 137, N-[(4,6-dimethyl-2-oxo-1,2-dihydropyridin-3-yl)methyl]-2-fluoro-3-methoxybenz-amide]	20.924	167	
Cc1cc(C)c(CNC(=O)c2cccc(OC(C)C)c2Cl)c(=O)[nH]1 [Example 46, 2-chloro-N-[(4,6-dimethyl-2-oxo-1,2-dihydropyridin-3-yl)methyl]-3-isopropoxy-benzamide]	93.582	1.63	
Cc1cc(C)c(CNC(=O)c2ncnc(OC(C)C)c2Cl)c(=O)[nH]1 [Example 85]	69.248	9.12	
CC(=O)N1C2CCC1c1cc(-c3cc(C(=O)NCc4c(C)cc(C)[nH]c4=O)c(C)c(-c4ccnn4C)c3)ccc12 (stereo not shown) [Example 6, 5-[9-acetyl-1,2,3,4-tetrahydro-1,4-epiminonaphthalene-6-yl]-N-[(4,6-dimethyl-2-oxo-1,2-dihydropyridin-3-yl)methyl]-2-methyl-3-(1-methyl-1H-pyrazol-5-yl)benzamide]		0.022	0.82
Cc1cc(C)c(CNC(=O)c2ccnc(OC(C)C)c2Cl)c(=O)[nH]1 [Example 65, 3-chloro-N-[(4,6-dimethyl-2-oxo-1,2-dihydropyridin-3-yl)methyl]-2-isopropoxyiso-nicotinamide]	71.459	4.51	
Cc1cc(C)c(CNC(=O)c2cc(-c3cnc(N4C[C@@H]5C[C@H]4CO5)nc3)cc(-c3c(C)cnn3C)c2C)c(=O)[nH]1 [Example 22, N-[(4,6-dimethyl-2-oxo-1,2-dihydropyridin-3-yl)methyl]-3-(1,4-dimethyl-1H-pyrazol-5-yl)-2-methyl-5-{2-[(1S,4S)-2-oxa-5-azabicyclo[2.2.1]hept-5-yl]pyrimidin-5-yl}benzamide]		0.027	0.75
CCCc1c(OC)cccc1C(=O)NCc1c(C)cc(C)[nH]c1=O [Example 128, N-[(4,6-dimethyl-2-oxo-1,2-dihydropyridin-3-yl)methyl]-3-methoxy-2-propylbenzamide]	38.993	54.3	
Cc1cc(C)c(CNC(=O)c2c(F)ccc(OC(C)C)c2Cl)c(=O)[nH]1 [Example 86, 2-chloro-N-[(4,6-dimethyl-2-oxo-1,2-dihydropyridin-3-yl)methyl]-6-fluoro-3-isopropoxy-benzamide]	64.416	9.38	
Cc1cc(C)c(CNC(=O)c2cccc(OC(C)C)c2C)c(=O)[nH]1 [Example 32, N-((4,6-dimethyl-2-oxo-1,2-dihydropyridin-3-yl)methyl)-3-isopropoxy-2-methylbenzamide]	83.654	0.87	11.2
Cc1cc(C)c(CNC(=O)c2c(Cl)ccc(OCCN3CCCC3)c2Cl)c(=O)[nH]1 [Example 129, 2,6-dichloro-N-[(4,6-dimethyl-2-oxo-1,2-dihydropyridin-3-yl)methyl]-3-(2-pyrrolidin-1-ylethoxy)benza-mide]	32.145	54.3	
